Experiments:
SK-MEL-2 = test: cells; details: Homo sapiens, SK-MEL-2, 72 h
Description: Antiproliferative activity against human SK-MEL-2 cells after 72 hrs by ViaLight assay

COLO 205 = test: cells; details: Homo sapiens, COLO 205, 72 h
Description: Antiproliferative activity against human COLO205 cells after 72 hrs by ViaLight assay

MDA-MB-435 = test: cells; details: Homo sapiens, MDA-MB-435, 72 h
Description: Antiproliferative activity against human MDA-MB-435 cells after 72 hrs by ViaLight assay

HCC 2998 = test: cells; details: Homo sapiens, HCC 2998, 72 h
Description: Antiproliferative activity against human HCC2998 cells after 72 hrs by ViaLight assay

NCI-H460 = test: cells; details: Homo sapiens, NCI-H460, 72 h
Description: Antiproliferative activity against human NCI-H460 cells after 72 hrs by ViaLight assay

SF-295 = test: cells; details: Homo sapiens, SF-295, 72 h
Description: Antiproliferative activity against human SF295 cells after 72 hrs by ViaLight assay

U-251 = test: cells; details: Homo sapiens, U-251, 72 h
Description: Antiproliferative activity against human U251 cells after 72 hrs by ViaLight assay

A549 = test: cells; details: Homo sapiens, A549, 72 h
Description: Antiproliferative activity against human A549 cells after 72 hrs by ViaLight assay

NCI-H226 = test: cells; details: Homo sapiens, NCI-H226, 72 h
Description: Antiproliferative activity against human NCI-H226 cells after 72 hrs by ViaLight assay

MDA-MB-231 = test: cells; details: Homo sapiens, MDA-MB-231, 72 h
Description: Antiproliferative activity against human MDA-MB-231 cells after 72 hrs by ViaLight assay

UO-31 = test: cells; details: Homo sapiens, UO-31, 72 h
Description: Antiproliferative activity against human UO31 cells after 72 hrs by ViaLight assay

HOP-62 = test: cells; details: Homo sapiens, HOP-62, 72 h
Description: Antiproliferative activity against human HOP62 cells after 72 hrs by ViaLight assay

cells [1] = details: Homo sapiens, HL-60, 72 h
Description: Antiproliferative activity against human HL60(TB) cells after 72 hrs by ViaLight assay

PC-3 = test: cells; details: Homo sapiens, PC-3, 72 h
Description: Antiproliferative activity against human PC3 cells after 72 hrs by ViaLight assay

cells [2] = details: Homo sapiens, Hs-578T, 72 h
Description: Antiproliferative activity against human Hs 578T cells after 72 hrs by ViaLight assay

cells [3] = details: Homo sapiens, RPMI8266, 72 h
Description: Antiproliferative activity against human RPMI8266 cells after 72 hrs by ViaLight assay

HCT-116 = test: cells; details: Homo sapiens, HCT-116, 72 h
Description: Antiproliferative activity against human HCT116 cells after 72 hrs by ViaLight assay

M14 = test: cells; details: Homo sapiens, M14, 72 h
Description: Antiproliferative activity against human M14 cells after 72 hrs by ViaLight assay

OVCAR-3 = test: cells; details: Homo sapiens, OVCAR-3, 72 h
Description: Antiproliferative activity against human OVCAR-3 cells after 72 hrs by ViaLight assay

DU-145 = test: cells; details: Homo sapiens, DU-145, 72 h
Description: Antiproliferative activity against human DU145 cells after 72 hrs by ViaLight assay

A498 = test: cells; details: Homo sapiens, A498, 72 h
Description: Antiproliferative activity against human A498 cells after 72 hrs by ViaLight assay

OVCAR-4 = test: cells; details: Homo sapiens, OVCAR-4, 72 h
Description: Antiproliferative activity against human OVCAR4 cells after 72 hrs by ViaLight assay

786-0 = test: cells; details: Homo sapiens, 786-0, 72 h
Description: Antiproliferative activity against human 786-0 cells after 72 hrs by ViaLight assay

IGROV-1 = test: cells; details: Homo sapiens, IGROV-1, 72 h
Description: Antiproliferative activity against human IGROV1 cells after 72 hrs by ViaLight assay

UACC-62 = test: cells; details: Homo sapiens, UACC-62, 72 h
Description: Antiproliferative activity against human UACC62 cells after 72 hrs by ViaLight assay

SNB-19 = test: cells; details: Homo sapiens, SNB-19, 72 h
Description: Antiproliferative activity against human SNB19 cells after 72 hrs by ViaLight assay

SR = test: cells; details: Homo sapiens, 72 h
Description: Antiproliferative activity against human SR cells after 72 hrs by ViaLight assay

HT-29 = test: cells; details: Homo sapiens, HT-29, 72 h
Description: Antiproliferative activity against human HT29 cells after 72 hrs by ViaLight assay

HEK293 = test: Antiproliferative activity against human HEK293 cells after 48 hrs by MTS reduction assay; assay type: cell-based; details: HEK293, 48 h

CC[C@H](CO)Nc1nc(NCc2ccccc2)c2ncn(C(C)C)c2n1 [SELICICLIB]
20 µM: GI50 (NCI-H226; read-out: pGI50 (converted)) | GI50 (cells [1]; read-out: pGI50 (converted)) | GI50 (DU-145; read-out: pGI50 (converted)) | GI50 (HT-29; read-out: pGI50 (converted))
31.6 µM: TGI (COLO 205) | TGI (COLO 205; read-out: pTGI) | GI50 (HCC 2998) | GI50 (HCC 2998; read-out: pGI50 (converted)) | GI50 (OVCAR-4) | GI50 (OVCAR-4; read-out: pGI50 (converted)) | TGI (UACC-62) | TGI (SNB-19; read-out: pTGI)
6.31 µM: GI50 (IGROV-1; read-out: pGI50 (converted))
5.01 µM: GI50 (HCT-116) | GI50 (HCT-116; read-out: pGI50 (converted)) | GI50 (SR) | GI50 (SR; read-out: pGI50 (converted))
25.1 µM: GI50 (NCI-H460) | GI50 (NCI-H460; read-out: pGI50 (converted)) | GI50 (SF-295) | GI50 (SF-295; read-out: pGI50 (converted)) | GI50 (HOP-62) | GI50 (HOP-62; read-out: pGI50 (converted)) | GI50 (cells [3]) | GI50 (cells [3]; read-out: pGI50 (converted)) | GI50 (M14) | GI50 (A498; read-out: pGI50 (converted)) | GI50 (786-0)
48.9 µM: IC50 (HEK293)
50.1 µM: TGI (MDA-MB-435) | GI50 (U-251) | TGI (M14; read-out: pTGI) | GI50 (A498)
6.3 µM: GI50 (IGROV-1)
63.1 µM: GI50 (UO-31; read-out: pGI50 (converted)) | TGI (UO-31; read-out: pTGI) | TGI (PC-3) | TGI (OVCAR-4; read-out: pTGI)
19.9 µM: GI50 (NCI-H226) | GI50 (cells [1]) | GI50 (PC-3) | GI50 (HT-29)
12.8 µM: GI50 (cells [2])
15.8 µM: GI50 (SK-MEL-2) | GI50 (SK-MEL-2; read-out: pGI50 (converted)) | GI50 (DU-145)
7.9 µM: GI50 (UACC-62)
39.8 µM: TGI (SK-MEL-2) | TGI (SK-MEL-2; read-out: pTGI) | GI50 (MDA-MB-231)
12.6 µM: GI50 (COLO 205) | GI50 (COLO 205; read-out: pGI50 (converted)) | GI50 (MDA-MB-435) | GI50 (U-251; read-out: pGI50 (converted)) | GI50 (A549) | GI50 (A549; read-out: pGI50 (converted)) | GI50 (MDA-MB-231; read-out: pGI50 (converted)) | TGI (MDA-MB-231; read-out: pTGI) | GI50 (UO-31) | GI50 (PC-3; read-out: pGI50 (converted)) | TGI (cells [2]) | GI50 (M14; read-out: pGI50 (converted)) | GI50 (OVCAR-3) | GI50 (OVCAR-3; read-out: pGI50 (converted)) | GI50 (SNB-19; read-out: pGI50 (converted))
